Test results published in PMC7351026, “Serum Half-Lives for Short- and Long-Chain Perfluoroalkyl Acids after Ceasing Exposure from Drinking Water Contaminated by Firefighting Foam” (Environmental Health Perspectives, 2020).

How the values were obtained:
[1] = PFAS levels in serum samples of airport employees (LC/MS/MS); conditions: for Serum level in the first samples, median (range) / Relative composition of PFAS in serum, weight basis / Relative composition of PFAS in serum, molar concentration basis / Serum concentration, molar basis / Serum concentration, weight basis: all 26 airport employees; for Relative composition of PFAS in serum, weight basis / Relative composition of PFAS in serum, molar concentration basis: first serum samples; for Serum concentration, molar basis / Serum concentration, weight basis: median of first serum samples; for Serum level, median (range): second to fifth samplings, 17 airport employees
Text: All 26 employees at the airport were invited for a blood sampling between 11 and 14 September 2018 (i.e., within 11 to 14 d after the termination of contaminated drinking-water exposure). Information on age, home address, employment history, working tasks, and sick leave and vacation days in August and September were collected by questionnaire. In addition, data on the number of glasses of water consumed per day, local fish consumption, and history of blood donation and medication were collected. For female employees, questions about menstruation, pregnancy, and duration of breast-feeding were asked.
The PFAS analysis in serum from the first sampling was immediately performed and personal results were reported to the employees. […] These 17 employees submitted four rounds of blood and first morning urine samples in parallel, at 1-month intervals. In total, there were five rounds of serum sampling (started from September) and four rounds of urine sampling (from October). For modeling of elimination, all samples were reanalyzed in a single batch. We obtained 83 serum samples with a median count of 5 (range: 4–5) samples per employee, and 59 urine samples with median of 4 (range: 1–4) samples per employee. Only one employee provided a single urine sample. The study was approved by the Regional Ethical Review Board in Lund, Sweden. All employees provided written informed consent.
Venous whole blood samples were obtained and were centrifuged for 10 min at 1,500×g at room temperature to isolate the serum on site. The serum samples were collected in 6-mL BD Vacutainer® Plus plastic serum tubes without gel (BD). Urine samples were collected in 13-mL polypropylene screw cap tubes (Sarstedt). Serum and urine samples were frozen at −20°C after sampling and transported to Lund using cold chain logistics. Serum and urine samples were stored at −80°C and −20°C , respectively, before analysis.
The serum samples, QC samples, and chemical blanks were prepared in 96-well plates with 1.5-mL flat-bottom glass vials (Biotech solutions). Serum samples were thawed for 1–2 h and mixed on a vortex shaker for approximately 10 s two times. Once after all samples were thawed and a second time before pipetting the serum to the plate. Before pipetting, the tip was pre-wetted several times, drawing a volume into the tip and dispensing it back into the tube. Sample preparation procedures for serum samples consisted of 25μL serum mixed with 25μL water, 25μL methanol, 25μL isotopically labeled internal standards in 50% acetonitrile (see Table S1), and 100μL acetonitrile. Thereafter, samples were mixed vigorous by shaking for 30 min and centrifuged at 2,600×g for 10 min at room temperature. The supernatant ( 0.2mL ) was transferred to 96-well plates with 0.5-mL conical glass vials (MicroLiter Analytical Supplies) and again centrifuged at 3,000×g for 10 min before analysis. The QC samples and chemical blanks were prepared following the same procedure as the serum samples. The calibration standards were prepared in FBS the same way as the samples, except for the addition of diluted reference standards of all analyzed compounds in 25μL of the methanol solution.
Aliquots of 4μL of the sample were analyzed using LC/MS/MS. For the analysis, a C18 column ( 4μm , 2.1mm i.d.×50mm , Genesis Lightning) was used prior to the injector to filter the mobile phases. The analytical column was an Aquity BEH ( 1.7μm , 2.1mm i.d.×100mm Waters). The mobile phases (A and B) were A: 5 mM ammonium acetate in water:methanol (50:50); and B: methanol. The mobile phase was kept at 0% B for 2.5 min after injection. A gradient was then applied over 11 min to 90% B, where it was then kept for 1.5 min. The column was then conditioned at 0% B for 2 min.

[2] = Background serum PFAS levels in reference population from Karlshamn; type: in vivo, human; conditions: reference group from Karlshamn without PFAS contamination in drinking water, N=58, sampled 2016
Text: For comparison with Swedish general background PFAS serum levels, we referred to the PFAS levels observed in a reference population from Karlshamn, a municipality in southern Sweden without PFAS contamination in the municipal drinking water. In 2016, 226 individuals were sampled. Fifty-nine individuals were randomly selected for analyzing other short-chain PFAS than the legacy ones, using the same modified method as for the airport employees. Fifty-eight individuals within the same age range as the airport employees (i.e., >22 years of age ) were included in the comparison. For a detailed description of this population see Li et al. ([2018]).

[3] = 1st sampling (September 2018), count 17
[4] = 2nd sampling (October 2018), count 17
[5] = 3rd sampling (November, 2018), count 17
[6] = 4th sampling (December 2018), count 16
[7] = 5th sampling (January 2019), count 16
[8] = employees participated in first blood sampling and repeated blood and urine sampling, N=17
[9] = employees participated in first blood sampling only, N=9, 11-14 d after end of exposure

O=S(=O)(O)C(F)(C(F)(F)F)C(F)(F)C(F)(F)C(F)(F)C(F)(F)C(F)(F)C(F)(F)F (stereo not drawn) [1m-PFOS, perfluoro-1-methylheptanesulfonate]
Serum PFAS level, 25 percentile [1, 3]: 0.48 | Serum PFAS level, 75 percentile [1, 3]: 1.8 | Serum PFAS level, Max [1, 3]: 4.1 | Serum PFAS level, Median [1, 3]: 1.0 | Serum PFAS level, Min [1, 3]: 0.32 | Serum PFAS level, 25 percentile [1, 4]: 0.54 | Serum PFAS level, 75 percentile [1, 4]: 1.4 | Serum PFAS level, Max [1, 4]: 4.0 | Serum PFAS level, Median [1, 4]: 0.89 | Serum PFAS level, Min [1, 4]: 0.26 | Serum PFAS level, 25 percentile [1, 5]: 0.54 | Serum PFAS level, 75 percentile [1, 5]: 1.5 | Serum PFAS level, Max [1, 5]: 4.4 | Serum PFAS level, Median [1, 5]: 0.88 | Serum PFAS level, Min [1, 5]: 0.24 | Serum PFAS level, 25 percentile [1, 6]: 0.47 | Serum PFAS level, 75 percentile [1, 6]: 1.3 | Serum PFAS level, Max [1, 6]: 4.3 | Serum PFAS level, Median [1, 6]: 0.91 | Serum PFAS level, Min [1, 6]: 0.24 | Serum PFAS level, 25 percentile [1, 7]: 0.51 | Serum PFAS level, 75 percentile [1, 7]: 1.3 | Serum PFAS level, Max [1, 7]: 4.5 | Serum PFAS level, Median [1, 7]: 0.97 | Serum PFAS level, Min [1, 7]: 0.26 | PFAS in first serum sample, median (range) [1, 8]: 1.0 (0.32–4.1) ng/mL | PFAS in first serum sample, median (range) [1, 9]: 0.52 (0.25–2.7) ng/mL | Initial serum PFAS level, max ([1]; females (N=7)): 1.1 ng/mL | Initial serum PFAS level, median ([1]; females (N=7)): 0.58 ng/mL | Initial serum PFAS level, min ([1]; females (N=7)): 0.39 ng/mL | Initial serum PFAS level, Max ([1]; males (N=19)): 4.1 ng/mL | Initial serum PFAS level, Min ([1]; males (N=19)): 0.25 ng/mL | Initial serum PFAS level, median ([1]; males (N=19)): 1.1 ng/mL | PFAS serum level, median (range) [2]: 0.18 ( <LOD –0.59) ng/mL

O=S(=O)(O)C(F)(F)C(F)(F)C(F)(F)C(F)(F)C(F)(F)C(F)(F)C(F)(F)C(F)(F)F [L-PFOS, linear perfluorooctane sulfonic acid]
Serum PFAS level, 25 percentile [1, 3]: 7.7 | Serum PFAS level, 75 percentile [1, 3]: 15 | Serum PFAS level, Max [1, 3]: 28 | Serum PFAS level, Median [1, 3]: 11 | Serum PFAS level, Min [1, 3]: 5.5 | Serum PFAS level, 25 percentile [1, 4]: 7.6 | Serum PFAS level, 75 percentile [1, 4]: 16 | Serum PFAS level, Max [1, 4]: 24 | Serum PFAS level, Median [1, 4]: 10 | Serum PFAS level, Min [1, 4]: 4.1 | Serum PFAS level, 25 percentile [1, 5]: 7.3 | Serum PFAS level, 75 percentile [1, 5]: 16 | Serum PFAS level, Max [1, 5]: 23 | Serum PFAS level, Median [1, 5]: 11 | Serum PFAS level, Min [1, 5]: 4.7 | Serum PFAS level, 25 percentile [1, 6]: 7.4 | Serum PFAS level, 75 percentile [1, 6]: 14 | Serum PFAS level, Max [1, 6]: 24 | Serum PFAS level, Median [1, 6]: 9.8 | Serum PFAS level, Min [1, 6]: 4.4 | Serum PFAS level, 25 percentile [1, 7]: 9.1 | Serum PFAS level, 75 percentile [1, 7]: 16 | Serum PFAS level, Max [1, 7]: 23 | Serum PFAS level, Median [1, 7]: 10 | Serum PFAS level, Min [1, 7]: 4.5 | Serum level in the first samples, median (range) [1]: 9.5 (5.4–28) ng/mL | PFAS in first serum sample, median (range) [1, 8]: 11 (5.5–28) ng/mL | PFAS in first serum sample, median (range) [1, 9]: 6.5 (5.4–13) ng/mL | Initial serum PFAS level, max ([1]; females (N=7)): 13 ng/mL | Initial serum PFAS level, median ([1]; females (N=7)): 9.3 ng/mL | Initial serum PFAS level, min ([1]; females (N=7)): 5.5 ng/mL | Relative composition of PFAS in serum, weight basis [1]: 8.6% | Relative composition of PFAS in serum, molar concentration basis ([1]; listed as PFOS (linear)): 7.0% | Initial serum PFAS level, Max ([1]; males (N=19)): 28 ng/mL | Initial serum PFAS level, Min ([1]; males (N=19)): 5.4 ng/mL | Initial serum PFAS level, median ([1]; males (N=19)): 10 ng/mL | Serum concentration, molar basis [1]: 0.019 | Serum concentration, weight basis [1]: 9.5 | Serum level, median (range) [1]: 10 (4.1–24) ng/mL | PFAS serum level, median (range) [2]: 3.0 (0.30–9.8) ng/mL

O=S(=O)(O)C(F)(F)C(F)(F)C(F)(F)C(F)(F)C(F)(F)F [PFPeS, perfluoropentane sulfonic acid]
Serum PFAS level, 25 percentile [1, 3]: 5.8 | Serum PFAS level, 75 percentile [1, 3]: 13 | Serum PFAS level, Max [1, 3]: 17 | Serum PFAS level, Median [1, 3]: 7.6 | Serum PFAS level, Min [1, 3]: 3.6 | Serum PFAS level, 25 percentile [1, 4]: 4.9 | Serum PFAS level, 75 percentile [1, 4]: 11 | Serum PFAS level, Max [1, 4]: 14 | Serum PFAS level, Median [1, 4]: 6.8 | Serum PFAS level, Min [1, 4]: 2.3 | Serum PFAS level, 25 percentile [1, 5]: 4.4 | Serum PFAS level, 75 percentile [1, 5]: 11 | Serum PFAS level, Max [1, 5]: 14 | Serum PFAS level, Median [1, 5]: 6.3 | Serum PFAS level, Min [1, 5]: 2.1 | Serum PFAS level, 25 percentile [1, 6]: 4.0 | Serum PFAS level, 75 percentile [1, 6]: 11 | Serum PFAS level, Max [1, 6]: 14 | Serum PFAS level, Median [1, 6]: 6.5 | Serum PFAS level, Min [1, 6]: 1.8 | Serum PFAS level, 25 percentile [1, 7]: 4.4 | Serum PFAS level, 75 percentile [1, 7]: 9.9 | Serum PFAS level, Max [1, 7]: 13 | Serum PFAS level, Median [1, 7]: 6.2 | Serum PFAS level, Min [1, 7]: 1.9 | Serum level in the first samples, median (range) [1]: 6.9 (1.4–17) ng/mL | PFAS in first serum sample, median (range) [1, 8]: 7.6 (3.6–17) ng/mL | PFAS in first serum sample, median (range) [1, 9]: 3.5 (1.4–11) ng/mL | Serum level, median ([1]; exposed employees 5 months after exposure ceased): 6.22 ng/mL | Initial serum PFAS level, max ([1]; females (N=7)): 15 ng/mL | Initial serum PFAS level, median ([1]; females (N=7)): 5.1 ng/mL | Initial serum PFAS level, min ([1]; females (N=7)): 3.5 ng/mL | Relative composition of PFAS in serum, molar concentration basis [1]: 7.3% | Relative composition of PFAS in serum, weight basis [1]: 6.3% | Initial serum PFAS level, Max ([1]; males (N=19)): 17 ng/mL | Initial serum PFAS level, Min ([1]; males (N=19)): 1.4 ng/mL | Initial serum PFAS level, median ([1]; males (N=19)): 7.2 ng/mL | Serum concentration, molar basis [1]: 0.020 | Serum concentration, weight basis [1]: 6.9 | Serum level, median (range) [1]: 6.5 (1.8–14) ng/mL
